# Where two headings read alike, the source gives them in different places.
# Experiments:
# Sacchromyces cerevisae = assay: Kirby-Bauer Testing, Saccharomyces cerevisiae; format: cell-based; settings: Saccharomyces cerevisiae, 10 μl of 10 mg/mL per disk, 30° C., 16 hours
# Method: The hydroxyitraconazole isomers were tested for biological activity according three different assays.
# Actively growing cultures of Candida albicans, Cryptococcus neoformens and Saccharomyces cerevisiae were prepared as described above. The cultures were diluted to a 0.5 McFarland standard and swabbed onto a 150 mm Sabouraud Dextrose agar plates. Paper disks (7 mm) were placed onto the agar plates using a disk dispenser. […] The plates were then incubated at 30° C. for 16 hours. Zones of inhibition were then measured in mm.
# Candida albicans = assay: Antifungal MIC, Candida albicans; format: cell-based; settings: Candida albicans
# Method: (§1) A 10 mL tube containing 4 mL of Sabourauds dextrose broth was inoculated with 1 colony of Candida albicans picked from a plate of pure culture. The strain was ordered from the American Type Culture Collection (ATCC). The organism was grown for 4 hours at 30° C. while shaking at 150 RPM. While the organism was growing, samples of hydroxy-itraconazoles were solubilized to a concentration of 10 mg/mL in DMSO. Each sample was then diluted 1:10 to make 1 mg/mL samples or 1000 μg/mL. These samples were then diluted by serial 2-fold dilutions to produce samples now containing 1000, 500, 250, 125, 62.5, 31.25, 15.6 μg/mL. […] At 4 hours of growth time the Candida albicans was diluted to a 0.5 McFarland standard representing about 10^5 -10^6 cells/mL and 1 μL of this inoculum placed into each test well of the microtiter dish. The dish was then covered and incubated at 30° C. for 16 hours.
# [1] = Water solubility of hydroxyitraconazole isomers and itraconazole; format: physicochemical; settings: for solubility: water
# Method: The isomers of cis hydroxyitraconazole were tested for water solubility against a […] standard solution of hydroxyitraconazole. […] The values for 3+4 and 11+12 are barely above the LOD, giving accuracies of ±10%. In every case, solubilities were in the 10^1 to 10^2 ng/ml range.
# [2] = Water solubility of hydroxyitraconazole phosphate isomers (NMG salts); format: physicochemical; settings: water; Table 8
# Source text: The water solubility of the NMG salts of the phosphate esters of isomers 1, 2 and 3+4 were investigated and compared to the corresponding hydroxyitraconazole isomers 1, 2 and 3+4. The phosphate esters were as much as 10^7 times more water soluble than the corresponding hydroxyitraconazole isomer.
# cytochrome P450 3A4 [3] = target: T1, cytochrome P450 3A4 (Homo sapiens, UniProt P08684); assay: Inhibition of cytochrome P450 3A4 (testosterone 6β-hydroxylase activity)
# Cr. neoformens = assay: Antifungal MIC, Cr. neoformens; format: cell-based, Cryptococcus neoformens; settings: Cryptococcus; Cr. neoformens (Table 3)
# Method: [The source words this procedure for another organism and reports this organism under the same test.] as §1
# S. cerevisae = assay: Antifungal MIC, S. cerevisae; format: cell-based, Saccharomyces cerevisiae; settings: Saccharomyces cerevisiae; S. cerevisae (Table 3)
# Method: [The source words this procedure for another organism and reports this organism under the same test.] as §1
# A. fumigatis = assay: Antifungal MIC, A. fumigatis; format: cell-based; settings: A. fumigatis (Table 3)
# Method: [The source words this procedure for another organism and reports this organism under the same test.] as §1
# cytochrome P450 3A4 [4] = target: T1, cytochrome P450 3A4
# Method: The IC50 values were determined by the appearance of 6β-hydroxytestosterone after incubation with testosterone. […] Of greater clinical significance is the ratio of the IC50 for 3A4 to the MIC for C. albicans 44203.
# delayed rectifier (IK) = settings: cited from earlier work
# [5] = Candida albicans strain 44203 (Table 4), read-out: MIC
# [6] = LOD: 5000 μV*sec, order-of-magnitude accuracy below LOD, 3+4 and 11+12 ±10%
# [7] = C. albicans strain 28516 (Table 3), read-out: Antifungal MIC
# [8] = C. albicans strain 28815 (Table 3), read-out: Antifungal MIC
# [9] = C. albicans strain 44203 (Table 3), read-out: Antifungal MIC
# [10] = C. albicans strain 44373 (Table 3), read-out: Antifungal MIC
# T1 sequence (P08684 whole entry): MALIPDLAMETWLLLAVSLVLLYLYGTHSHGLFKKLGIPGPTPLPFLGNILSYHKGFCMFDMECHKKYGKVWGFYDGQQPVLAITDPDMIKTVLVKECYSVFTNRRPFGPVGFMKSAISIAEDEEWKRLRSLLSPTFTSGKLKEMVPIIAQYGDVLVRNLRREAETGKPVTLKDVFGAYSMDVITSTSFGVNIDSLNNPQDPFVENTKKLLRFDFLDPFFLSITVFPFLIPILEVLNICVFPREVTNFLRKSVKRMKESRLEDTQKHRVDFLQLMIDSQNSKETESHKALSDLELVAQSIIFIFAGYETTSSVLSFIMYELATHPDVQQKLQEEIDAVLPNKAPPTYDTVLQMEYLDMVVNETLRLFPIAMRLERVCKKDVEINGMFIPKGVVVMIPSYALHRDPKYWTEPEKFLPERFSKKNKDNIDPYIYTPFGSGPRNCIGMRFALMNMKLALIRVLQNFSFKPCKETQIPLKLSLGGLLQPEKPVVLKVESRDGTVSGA
Structure (SMILES),zone of inhibition at 10000 µg/mL (Sacchromyces cerevisae) [mm],MIC (Candida albicans; [5]) [µg/mL],"solubility [1, 6] [µg/mL]",selectivity ratio (cytochrome P450 3A4 [3]),MIC (Candida albicans; [7]) [µg/mL],MIC (Candida albicans; [8]) [µg/mL],MIC (Candida albicans; [9]) [µg/mL],MIC (Candida albicans; [10]) [µg/mL],MIC (Cr. neoformens) [µg/mL],MIC (S. cerevisae) [µg/mL],MIC (A. fumigatis) [µg/mL],MIC (Candida albicans) [µg/mL],further results
CC(O)C(C)n1ncn(-c2ccc(N3CCN(c4ccc(OC[C@H]5CO[C@](Cn6cncn6)(c6ccc(Cl)cc6Cl)O5)cc4)CC3)cc2)c1=O (stereo partly shown) [3 + 4],23,0.1,1.97,24,,,,,,,,,solubility [2]: 2 µg/mL
CC(O)C(C)n1ncn(-c2ccc(N3CCN(c4ccc(OC[C@@H]5CO[C@@](Cn6cncn6)(c6ccc(Cl)cc6Cl)O5)cc4)CC3)cc2)c1=O (stereo partly shown) [11 + 12],25,0.05,0.59,6.5,0.25,0.125,0.05,0.5,0.78,0.195,0.137,,"MIC (Candida albicans; C. albicans strain 10231 (Table 3), read-out: Antifungal MIC): 1 µg/mL; MIC (Candida albicans; C. albicans strain 62342 (Table 3), read-out: Antifungal MIC): 0.5 µg/mL"
C[C@@H](O)[C@H](C)n1ncn(-c2ccc(N3CCN(c4ccc(OC[C@@H]5CO[C@@](Cn6cncn6)(c6ccc(Cl)cc6Cl)O5)cc4)CC3)cc2)c1=O [Compound 9],20,0.05,0.045,7.4,0.25,0.125,0.05,0.25,0.78,0.195,0.137,,
CC(O)C(C)n1ncn(-c2ccc(N3CCN(c4ccc(OC[C@H]5CO[C@](Cn6cncn6)(c6ccc(Cl)cc6Cl)O5)cc4)CC3)cc2)c1=O (stereo partly shown) [Compound 3 + 4],,,,,,,,,,,,,"Inhibition of P450 3A4 in words (cytochrome P450 3A4 [4]): notably less inhibition of the P450 3A4 enzyme than the 2S,4R isomers; IC50/MIC ratio in words (cytochrome P450 3A4 [3]; therapeutic index, 3A4 vs C. albicans 44203): excellent results"
"CC[C@@H](C)n1ncn(-c2ccc(N3CCN(c4ccc(OC[C@H]5CO[C@](Cn6cncn6)(c6ccc(Cl)cc6Cl)O5)cc4)CC3)cc2)c1=O [Compound 6, reference compound]",,,,,,,,,,,,0.312,
C[C@@H](OP(=O)(O)O)[C@H](C)n1ncn(-c2ccc(N3CCN(c4ccc(OC[C@H]5CO[C@](Cn6cncn6)(c6ccc(Cl)cc6Cl)O5)cc4)CC3)cc2)c1=O [1-PO3 --NMG2],,,,,,,,,,,,,solubility [2]: > 100000 µg/mL
"CC[C@H](C)n1ncn(-c2ccc(N3CCN(c4ccc(OC[C@@H]5CO[C@@](Cn6cncn6)(c6ccc(Cl)cc6Cl)O5)cc4)CC3)cc2)c1=O [Compound 7, reference compound]",,,,,,,,,,,,< 0.078,
C[C@H](O)[C@@H](C)n1ncn(-c2ccc(N3CCN(c4ccc(OC[C@@H]5CO[C@@](Cn6cncn6)(c6ccc(Cl)cc6Cl)O5)cc4)CC3)cc2)c1=O [Compound 10],22,0.025,,19,0.25,0.125,0.025,0.25,0.78,0.195,0.137,,"Water solubility [1, 6]: not detected; Area ([1]; λmax = 260 nm, LOD 5000 μV*sec): not even detected"
CCC(C)n1ncn(-c2ccc(N3CCN(c4ccc(OC[C@H]5CO[C@](Cn6cncn6)(c6ccc(Cl)cc6Cl)O5)cc4)CC3)cc2)c1=O (stereo partly shown) [5 + 6],,,,,,,,,,,,0.156,
CCN(CC)CCNC(=O)c1ccc(NC(C)=O)cc1 [acetyl-procainamide],,,,,,,,,,,,,Effect on cardiac repolarization (delayed rectifier (IK); Torsades de Pointes side effect): prolongation of cardiac repolarization; Block of delayed rectifier (IK) (delayed rectifier (IK)): ability to block a cellular potassium channel called the delayed rectifier (IK)

# From patent publication US6147077A, “2R,4S-hydroxyitraconazole isomers” (priority 1999, dated 2000)
